SMILES strings stand for the structures. Values after ≈ are worked out from the molar mass of the structure shown. Bounds are passed on as bounds.

The conditions of the series: buffer; pH 7.4; 200.0 µM.
For `Cc1c(C(=O)N2CCN(S(=O)(=O)c3ccccc3)CC2)oc2ccc(Br)cc12`, the solubility (kinetic) (in general, the concentration staying in solution when a stock, usually in DMSO, is diluted into the medium) came to 6.8 µg/mL (≈ 14.7 µM).
The figure for `CC(O)CNc1nc2c(c(=O)n(Cc3ccccc3)c(=O)n2C)n1C` (configuration not stated) is more than 51.5 µg/mL; for `CCc1ccc(NC(=O)Nc2ccon2)cc1` it is more than 34.7 µg/mL; for `O=C(NCCC(=O)N1CCc2ccccc21)c1ccco1` it is more than 42.6 µg/mL.
The figure for `O=C1CC2(CCCC2)CC(=O)N1c1ccccc1` is more than 36.5 µg/mL; for `Cc1cc(=O)oc2c(CN3CCCC3)c(O)ccc12` it is more than 38.9 µg/mL; for `COc1ccc(C2C(C#N)=C(C)NC(C)=C2C#N)c(OC)c1` it is 4.6 µg/mL (≈ 15.6 µM).
In the case of `O=C(Nc1cccc2c1CCCC2)c1ccccc1Br` it was less than 0.7 µg/mL.
Compound `FC(F)(F)c1ccc(NC(=S)NC2CCCCC2)cc1` had a kinetic solubility of 2.5 µg/mL (≈ 8.27 µM).
The figure for `O=S(=O)(c1ccccc1)N(CC1CO1)c1ccccc1` (configuration not stated) is more than 43.4 µg/mL; for `O=C(CSc1nc2ccccc2[nH]1)NCc1ccc(F)cc1` it is more than 47.3 µg/mL.
The compound `O=C(COC(=O)C1CC2C=CC1C2)Nc1ccccc1[N+](=O)[O-]` (configuration not stated) yielded a solubility (kinetic) of 29.4 µg/mL (≈ 92.9 µM).
In turn, `NS(=O)(=O)c1ccc(Sc2ccc3c(c2)CCC3)nc1` gave a solubility (kinetic) of 2.5 µg/mL (≈ 8.16 µM).
Turning to `N/C(=N/S(=O)(=O)c1ccccc1)c1cccc([N+](=O)[O-])c1`, the solubility (kinetic) was more than 45.8 µg/mL.
The figure for `CCN(CC)C(=O)CSc1ncnc2sc(C)c(C)c12` is 43.4 µg/mL (≈ 140 µM); for `O=C(O)C1C2CCC(C2)C1C(=O)NCCc1cccc(Cl)c1` (configuration not stated) it is more than 48.3 µg/mL; for `CCOc1ccc(N2C(=O)c3ccccc3NC2(C)CC)cc1` (configuration not stated) it is more than 46.6 µg/mL.
As for `Cc1cc(=O)[nH]c(SCC(=O)NC(C)C2CC3CCC2C3)c1C#N` (configuration not stated), the solubility (kinetic) is more than 51.8 µg/mL.
In the case of `O=C(NC1CCCC1)C1CCN(S(=O)(=O)c2ccccc2)CC1` it was 44.2 µg/mL (≈ 131 µM).
`N/C(=N\OC(=O)c1ccccc1Cl)c1cccc([N+](=O)[O-])c1` showed a solubility (kinetic) of 1.7 µg/mL (≈ 5.32 µM).
The figure for `CSCCC(NC(=O)c1ccco1)C(=O)NCC1CCCCC1` (configuration not stated) is more than 50.8 µg/mL; for `NC(=O)c1cc(-c2cccnc2)nc2ccc(Br)cc12` it is 2.2 µg/mL (≈ 6.7 µM); for `CC(OC(=O)c1nsc(Cl)c1Cl)C(=O)NC1CCCCC1` (configuration not stated) it is 31.6 µg/mL (≈ 90 µM).
For `Cc1ccc(C(=O)OCC(=O)N2CCCC2)cc1`, the kinetic solubility came out at 32.7 µg/mL (≈ 132 µM).
The figure for `COc1ccc(CCNC(=O)[C@@H](NC(N)=O)C(C)C)cc1` is more than 44 µg/mL.
The figure for `Cc1ccsc1C(=O)N1CCN(c2ccccn2)CC1` is more than 43.1 µg/mL; for `CCCCCOC(=O)C1=C(C)NC(=O)NC1c1ccccc1` (configuration not stated) it is 4.9 µg/mL (≈ 16.2 µM).
In the case of `CN(C)C(CNC(=O)c1ccc2nccnc2c1)c1ccco1` (configuration not stated) it was 46.5 µg/mL (≈ 150 µM); in that of `COc1cc([N+](=O)[O-])ccc1N1C(=O)C2C3C=CC(C4CC34)C2C1=O` (configuration not stated), 7.2 µg/mL (≈ 21.2 µM); in that of `CC(NC(=O)CCC(=O)c1ccc(F)cc1)C1CC2CCC1C2` (configuration not stated), 12.5 µg/mL (≈ 39.4 µM).
As to `Cc1onc(-c2ccccc2Cl)c1C(=O)Nc1cccc(S(=O)(=O)N2CCOCC2)c1`, the kinetic solubility amounted to 2 µg/mL (≈ 4.33 µM).
For the compound `Cc1ccc(Cc2c(C)c(C#N)c3[nH]c4ccccc4n3c2=O)cc1`, the kinetic solubility is less than 0.2 µg/mL.
The compound `O=C(Cc1ccsc1)Nc1ccc(Cl)cc1Cl` returned a kinetic solubility of 3.8 µg/mL (≈ 13.3 µM).
In turn, `Cc1ccc2nc(COC(=O)c3ccc(Cl)nc3)cc(=O)n2c1` registered a solubility (kinetic) of 7.3 µg/mL (≈ 22.1 µM).
The figure for `CCN(C(=O)C(=O)c1c[nH]c2ccccc12)c1ccccc1` is more than 43.9 µg/mL; for `CCCOc1ncnc2c1[nH]c1ccc(C)cc12` it is 0.9 µg/mL (≈ 3.73 µM).
In the case of `COc1cc2ncnc(NCc3cccc(F)c3F)c2cc1OC` it was 10.7 µg/mL (≈ 32.3 µM).
As to `CC1CC(C)(C)NC(=S)N1CCC(=O)N1CCc2ccccc2C1` (configuration not stated), the kinetic solubility is 38.8 µg/mL (≈ 112 µM).
`O=C(O)CSc1nccc2ccccc12`: the kinetic solubility was more than 32.9 µg/mL.
As for `CCOC(=O)CN=C/C(C(C)=O)=C(/C)O`, the solubility (kinetic) is more than 32 µg/mL.
As for `COC(=O)c1ccccc1NC(=O)c1onc(C)c1Cl`, the solubility (kinetic) is less than 0.3 µg/mL.
`Cc1ncc(CN2CCCC(C(=O)c3sccc3C)C2)s1` (configuration not stated) showed a kinetic solubility of 37.4 µg/mL (≈ 117 µM).
As for `Cn1c(=O)c2c(ncn2CCC(=O)N/N=C/c2ccncc2)n(C)c1=O`, the kinetic solubility was more than 53.3 µg/mL.
In the case of `CNC(=O)/C(C#N)=C/c1cc(C)n(-c2ccc(N3CCOCC3)cc2)c1C` it was 1.5 µg/mL (≈ 4.12 µM); in that of `COc1cc(C2NC(=S)NC3=C2C(=O)CCC3)ccc1O` (configuration not stated), more than 45.7 µg/mL; in that of `Cc1cc(C)c(NC(=S)NCCCSC2CCCCC2)c(C)c1`, 6.1 µg/mL (≈ 17.4 µM).
For the compound `Cc1ccc(C)c(NC(=O)C2CCCC2)c1`, the kinetic solubility is more than 32.6 µg/mL.
In the case of `CC(=O)c1cc(C#N)c(SCc2ccc([N+](=O)[O-])cc2)nc1C` it was less than 0.2 µg/mL.
In the case of `COc1ccc(S(=O)(=O)NCCc2c[nH]c3ccc(C)cc23)cc1` it was 17.3 µg/mL (≈ 50.2 µM); in that of `COc1ccc(CNC2CCCc3ccccc32)c(OC)c1` (configuration not stated), 31.4 µg/mL (≈ 106 µM).
Turning to `COc1cccc(N2C(=O)CN(Cc3ccccc3)C2=S)c1`, the solubility (kinetic) came to 24.9 µg/mL (≈ 79.7 µM).
Compound `Cc1cc(C)c(NC(=O)CNC(=O)c2ccc3ncsc3c2)c(C)c1` came in with a solubility (kinetic) of 6.7 µg/mL (≈ 19 µM).

The record behind these values is PubChem BioAssay AID1996.
